Where two headings read alike, the source gives them in different places.
Legend:
[1] = test system: MCF7, MDA‐MB‐231, HEK293, HepG2, U2OS and K562 cells; test: 72 h cell viability assay (Cell Titer-Glo); type: cell-based, human; conditions: 0-50 μM
Text: We compared morphological fingerprints of multiple parameters to assess overall biological similarity (Biol. Sim.) (Figure 1B).
(§1) A-366 and UNC0638 were purchased from Tocris. ARIAD and V-11-07-11 were purchased from Wuxi Apptec. UNC0737 and UNC0965 were synthesised as previously described.[1] Hemicholinium-3 and pyruvate kinase/lactic dehydrogenase enzymes were purchased from Sigma Aldrich. Aqueous and organic solvents were MS-grade and acquired by Sigma Aldrich unless stated otherwise.
(§2) MDA-MB-231, MCF7 and HEK293 cells were cultured in DMEM (Gibco, #11965092) supplemented with 10% FBS. K562 were cultured in IMDM (Gibco, #12440053) supplemented with 10% FBS. HepG2 were cultured in MEM (Gibco, #11095080) supplemented with 10 % FBS. […]
cultured in McCoy’s 5A (Sigma, M8403) supplemented with 10 % FBS and 1x GlutaMAX (Gibco, #35050061). Cells were maintained at 37 °C in a humidified 5% CO2 atmosphere. Peripheral blood mononuclear cells (PBMC) were isolated from healthy blood donors by density centrifugation.
MDA-MB-231, MCF7 or HEK293 cells (7.5 × 10^4 cells/mL) were each plated into x1 white 384-well polystyrene plate (Greiner Bio-One Ltd). A-366, […] and UNC0737 were directly added to each well of the cell line plates, at final concentrations 0-50 μM and incubated for 72 h at 37 °C/ 5% CO2.
Cell Titer-Glo® reagent was added to each well and total luminescence readings were performed within 15 min using the PHERAstar FSX (BMG Labtech). The cell viability results were normalised to the DMSO control and plotted using the sigmoidal dose-response (variable slope) equation in […]
Chemical Proteomics Drug Pulldown
For lysate generation MCF7 cells were grown until approximately 80% confluency before being pelleted and washed with PBS. […]
MDA-MB-231, […], HepG2, U2OS and K562 cells following treatment with A-366, UNC0638 and UNC0737 after 72 h measured by Cell Titer Glo assay (n=3). […]

ZNF644 = test: Competitive affinity-based chemoproteomics (UNC0965 matrix), MCF7 lysate; type: binding, human; conditions: 20 μM competitor, n=2
Method: as §1, §2
cultured in McCoy’s 5A (Sigma, M8403) supplemented with 10 % FBS and 1x GlutaMAX (Gibco, #35050061). Cells were maintained at 37 °C in a humidified 5% CO2 atmosphere. Peripheral blood mononuclear cells (PBMC) were isolated from healthy blood donors by density centrifugation. […]
Cell Titer-Glo® reagent was added to each well and total luminescence readings were performed within 15 min using the PHERAstar FSX (BMG Labtech). […]
Digested samples were analysed by nano-UPLC–MS/MS using a Dionex Ultimate 3000 nano UPLC fitted with an EASY spray column (75 μm × 500 mm, 2 μm particle size, Thermo Scientific), coupled to an Orbitrap Q Exactive instrument. […]

CHKA = CHKA (Homo sapiens, UniProt P35790); test: Isothermal calorimetry (ITC); type: binding; parameters: host or cells: E. coli BL21(DE3)
Chain of CHKA (P35790 75-457 limits assumed): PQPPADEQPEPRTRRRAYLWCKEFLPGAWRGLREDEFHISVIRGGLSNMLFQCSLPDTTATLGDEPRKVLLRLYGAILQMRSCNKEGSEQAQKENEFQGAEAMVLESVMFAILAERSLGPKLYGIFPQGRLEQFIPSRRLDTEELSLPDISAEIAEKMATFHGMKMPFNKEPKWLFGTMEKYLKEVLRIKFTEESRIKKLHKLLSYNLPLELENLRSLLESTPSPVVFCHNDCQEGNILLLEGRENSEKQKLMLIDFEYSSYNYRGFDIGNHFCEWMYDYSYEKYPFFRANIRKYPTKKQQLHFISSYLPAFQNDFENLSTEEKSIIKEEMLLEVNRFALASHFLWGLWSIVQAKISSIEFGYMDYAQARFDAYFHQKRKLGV
Method: mM NaCl, 5% glycerol, 500 mM imidazole, 0.5% TCEP, pH 7.5), the eluent was concentrated, and further purified by size exclusion chromatography using a HiLoad 16/600 Superdex S200 column (Cytiva) pre-equilibrated in Buffer C (20 mM HEPES, 150 mM NaCl, pH 7.5). The resulting protein purity was assessed by SDS-PAGE, and protein identity was confirmed by tryptic digest analysis. Protein concentration was determined to be 35.5 mg/mL, and was calculated using a theoretical molar extinction coefficient of 58830 M-1cm-1 as determined by ProtParam.[5]
Isothermal Calorimetry (ITC)
ITC experiments were performed in a buffer containing 20 mM HEPES pH 7.5 and 200 mM NaCl, using an VP-ITC microcalorimeter (MicroCal) at 15 °C. The protein concentration was 200 µM and compounds were tested at 20 µM. The titrations were conducted using an initial injection of 4 μL followed by further 29 injections of 8 μL each. Thermodynamic parameters were calculated using ΔG = ΔH − TΔS = −RT ln KB, where ΔG, ΔH, and ΔS are the changes in free energy, enthalpy, and entropy of binding, respectively. Single binding models were employed to fit the data. […]

Compound | effect on cell viability [1] | FC vs DMSO (log2 competition), ZNF644 (ZNF644) | Kd (CHKA; ITC, 15 °C, recombinant human CHKA, read-out: KD) | Kd (CHKA)
COc1cc2c(NC3CCN(C(C)C)CC3)nc(C3CCCCC3)nc2cc1OCCCN1CCCC1 [UNC0638] | antiproliferative effects | -2.1553 | 270 nM | –
COc1cc2c(N(C)C3CCN(C(C)C)CC3)nc(C3CCCCC3)nc2cc1OCCCN1CCCC1 [UNC0737] | antiproliferative effects | 0.3825 | – | 59.3 nM
